# Experimental data: the Kinase Knowledgebase extract (Sharma et al. 2016)
# Target: PIK3CD (Human) (UniProt O00329)
# Experiment: Assessment of PIK3CD Kinase Activity
# PIK3CD (Human), sequence (O00329 whole entry, looked up): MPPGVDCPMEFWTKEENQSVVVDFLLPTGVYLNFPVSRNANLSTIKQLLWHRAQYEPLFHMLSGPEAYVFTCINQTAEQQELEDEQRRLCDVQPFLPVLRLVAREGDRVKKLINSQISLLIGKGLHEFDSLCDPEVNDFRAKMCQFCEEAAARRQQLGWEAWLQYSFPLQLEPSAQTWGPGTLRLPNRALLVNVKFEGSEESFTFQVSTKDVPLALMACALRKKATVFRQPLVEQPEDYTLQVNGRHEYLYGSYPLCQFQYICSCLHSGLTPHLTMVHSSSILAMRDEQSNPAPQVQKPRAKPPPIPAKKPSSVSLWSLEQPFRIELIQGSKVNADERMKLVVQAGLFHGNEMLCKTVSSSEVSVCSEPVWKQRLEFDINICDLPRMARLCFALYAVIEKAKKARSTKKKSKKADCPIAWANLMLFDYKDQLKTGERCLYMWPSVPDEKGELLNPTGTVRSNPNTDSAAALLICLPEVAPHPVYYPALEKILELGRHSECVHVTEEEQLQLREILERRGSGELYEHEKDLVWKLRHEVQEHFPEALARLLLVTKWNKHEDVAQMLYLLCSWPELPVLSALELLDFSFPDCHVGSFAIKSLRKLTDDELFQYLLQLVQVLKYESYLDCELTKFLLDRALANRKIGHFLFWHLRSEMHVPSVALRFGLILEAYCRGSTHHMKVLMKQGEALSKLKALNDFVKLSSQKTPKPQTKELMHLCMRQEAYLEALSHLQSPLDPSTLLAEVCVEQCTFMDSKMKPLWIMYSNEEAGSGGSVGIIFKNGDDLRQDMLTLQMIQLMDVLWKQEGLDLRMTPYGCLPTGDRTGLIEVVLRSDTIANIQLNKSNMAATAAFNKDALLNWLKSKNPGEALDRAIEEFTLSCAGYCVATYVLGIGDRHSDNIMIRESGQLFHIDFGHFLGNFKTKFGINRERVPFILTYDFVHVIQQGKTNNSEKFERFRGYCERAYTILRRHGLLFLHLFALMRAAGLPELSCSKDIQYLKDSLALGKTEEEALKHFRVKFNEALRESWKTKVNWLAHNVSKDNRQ
row,SMILES,IC50 [nM]
1,COc1c(C(C)Nc2ncnc3[nH]cnc23)cc(Cl)c(C)c1-c1ccc(C(=O)N2CCOCC2)c(F)c1 (stereo not given),< 50
2,COc1c(C(C)Nc2ncnc3[nH]cnc23)cc(Cl)c(C)c1-c1ccc(C(=O)N2CCC(O)CC2)c(F)c1 (stereo not given),< 50
3,COc1c(-c2ccncc2)cc(Cl)cc1C(C)Nc1ncnc2[nH]cnc12 (stereo not given),50 to 100
4,COc1c(C(C)Nc2ncnc3[nH]cnc23)cc(Cl)c(C)c1-c1ccc(C(=O)NC2CCC2)c(F)c1 (stereo not given),< 50
5,COc1c(C(C)Nc2ncnc3[nH]cnc23)cc(Cl)c(F)c1C1=CCN(S(C)(=O)=O)CC1 (stereo not given),< 50
6,COc1c(-c2cncnc2)cc(Cl)cc1C(C)Nc1ncnc2[nH]cnc12 (stereo not given),50 to 100
7,CNC(=O)c1ccc(-c2c(C)c(Cl)cc(C(C)Nc3ncnc4[nH]cnc34)c2OC)cc1F (stereo not given),< 50

# Continued, values first:
row,IC50 [nM],SMILES
1,50 to 100,COc1c(-c2ccnn2C)cc(Cl)cc1C(C)Nc1ncnc2[nH]cnc12 (stereo not given)
2,< 50,COc1c(C(C)Nc2ncnc3[nH]cnc23)cc(Cl)c(C)c1-c1cncc(C#N)c1 (stereo not given)
3,< 50,COc1c(C(C)Nc2ncnc3[nH]cnc23)cc(Cl)c(C)c1C1CC(=O)N(C)C1 (stereo not given)
4,< 50,COc1c(C(C)Nc2ncnc3[nH]cnc23)cc(Cl)c(C)c1-c1cnn(C2(CC#N)CC(C#N)C2)c1 (stereo not given)
5,< 50,COc1c(C(C)Nc2ncnc3[nH]cnc23)cc(Cl)c(C)c1C1CNC(=O)C1 (stereo not given)
6,100 to 250,COc1ncc(-c2cc(Cl)cc(C(C)Nc3ncnc4[nH]cnc34)c2OC)cn1 (stereo not given)
7,< 50,CCOc1c(C(C)Nc2ncnc3[nH]cnc23)cc(Cl)c(C#N)c1C1CN(C(C)C)C1 (stereo not given)
8,50 to 100,COc1c(-c2ccc(NC(C)=O)cc2)cc(Cl)cc1C(C)Nc1ncnc2[nH]cnc12 (stereo not given)
